The NIST ThermoML archive (doi:10.1021/je201283n)

Conditions: Liquid, isochoric method

CCCCn1cc[n+](C)c1.N#CN=C=[N-] [1-butyl-3-methylimidazolium dicyanamide]
Conditions | mass density [kg/m3]
237.2 K, 1327.9 kPa | 1099.45
242.14 K, 9986.9 kPa | 1099.05
247.77 K, 20189 kPa | 1098.57
248.09 K, 1170.5 kPa | 1092.06
253.33 K, 10197 kPa | 1091.63
253.33 K, 29961 kPa | 1098.11
259.12 K, 20009 kPa | 1091.16
259.17 K, 39931 kPa | 1097.63
259.68 K, 1030 kPa | 1084.28
265.12 K, 50114 kPa | 1097.14
265.24 K, 10141 kPa | 1083.84
265.25 K, 30347 kPa | 1090.66
270.55 K, 18709 kPa | 1083.42
271.07 K, 59859 kPa | 1096.65
271.13 K, 39925 kPa | 1090.18
273.28 K, 2767.5 kPa | 1075.98
277.42 K, 50079 kPa | 1089.67
277.92 K, 9955.1 kPa | 1075.61
277.96 K, 30503 kPa | 1082.82
277.98 K, 10008 kPa | 1075.61
283.67 K, 59955 kPa | 1089.17
284.14 K, 40138 kPa | 1082.33
284.15 K, 1038.8 kPa | 1068.31
284.23 K, 1148.3 kPa | 1068.31
284.47 K, 20074 kPa | 1075.1
291.05 K, 29671 kPa | 1074.21
291.05 K, 30032 kPa | 1074.57
291.06 K, 11299 kPa | 1067.78
291.44 K, 51356 kPa | 1081.75
296.97 K, 19796 kPa | 1067.32
297.26 K, 60158 kPa | 1081.29
298.18 K, 40270 kPa | 1073.65
298.18 K, 40659 kPa | 1074.02
299.21 K, 3719.1 kPa | 1059.78
303.97 K, 10315 kPa | 1059.42
303.97 K, 30176 kPa | 1066.78
304.81 K, 50325 kPa | 1073.5
310.98 K, 40117 kPa | 1066.24
311.01 K, 20033 kPa | 1058.89
311.34 K, 59700 kPa | 1072.99
311.37 K, 676.6 kPa | 1050.98
317.98 K, 49917 kPa | 1065.7
318.27 K, 9911 kPa | 1050.46
318.27 K, 30183 kPa | 1058.34
325.32 K, 60007 kPa | 1065.14
325.56 K, 39796 kPa | 1057.8
326 K, 19921 kPa | 1049.89
326.53 K, 876.3 kPa | 1041.71
333.12 K, 50157 kPa | 1057.22
333.67 K, 9918.1 kPa | 1041.19
333.67 K, 30169 kPa | 1049.32
340.8 K, 60149 kPa | 1056.64
341.31 K, 39980 kPa | 1048.75
341.77 K, 20126 kPa | 1040.59
342.41 K, 781.5 kPa | 1031.94
349.32 K, 50089 kPa | 1048.15
349.8 K, 9629.2 kPa | 1031.41
349.8 K, 30031 kPa | 1040.31
